Assay results reported in patent publication US20130183418A1, “METHOD OF INHIBITION OF ENZYMATIC BROWNING IN FOOD USING A SULFINIC ACID COMPOUND” (UNIVERSITY OF FLORIDA RESEARCH FOUNDATION, INC., priority 2008, published 2013).

Test system: apple polyphenol oxidase
Assay: Polyphenol oxidase assay, color formation from catechol at 420 nm
Type: biochemical, Red Delicious apples
Conditions: for Average % Inhibition of apple PPO: average ± standard deviation, n = 6; for apple PPO activity: n=3, control 0.24±0.02
Experimental: Acetone powder containing apple polyphenol oxidase was prepared from Red Delicious apples. Cored and peeled apple pieces (200 g) were homogenized in a precooled blender along with 400 mL cold acetone (−20° C.) for 1 min and then filtered through Whatman No. 1 filter paper. The residue was extracted 3 times with 200 mL cold acetone and the resulting white powder was dried at room temperature, vacuum sealed in commercial plastic bags, and stored at −20° C. until needed. Crude PPO enzyme from the acetone powder was reconstituted in 0.1 M KH2PO4/Na2HPO4, pH 7.2 Containing 1% Triton X-100 (Bio-Rad Laboratories, Hercules, Calif.) using modified procedures of Murata et al. “Relationship between apple ripening and browning—changes in polyphenol content and polyphenol oxidase”, Journal of Agricultural and Food Chemistry 1995, 43 (5), 1115-21 and Yemenicioglu et al. “Heat inactivation kinetics of apple polyphenoloxidase and activation of its latent form”, Journal of Food Science 1997, 62 (3): 508-10. Acetone powder (1 g) was added to 50 mL of refrigerated 0.1 M KH2PO4/Na2HPO4, pH 7.2 buffer containing 1% TritonX-100 (Bio-Rad Laboratories, Hercules, Calif.) and the mixture was stirred for 20 min at 4° C. The suspension was centrifuged at 1200×g for 30 min, then filtered through glass wool and stored at −20° C. where it remained stable for at least 1 month.
A standard reaction mixture for evaluation of browning inhibition where the hypotaurine comprising solution was a mussel extract, consisted of 2.45 mL of 0.1 sodium acetate/acetic acid buffer, pH 5.5, 0.2 ml mussel extract (or additional pH 5.5 buffer for a control run for comparison), 0.3 mL of 0.5 M catechol (Sigma, St. Louis, Mo.) and 0.05 mL of enzyme extract. The percent inhibition was calculated with the following formula: I=100*(A-B)/A, where A and B are the greatest initial linear rate of the control and the test system respectively.
Polyphenol oxidase activity was measured by monitoring the increase in color (absorbance at 420 nm) in a reaction mixture with catechol as a substrate. […] From the data in FIG. 1, the inhibition of polyphenol oxidase by 90 ppm of hypotaurine was calculated to be 97 percent with a 30 fold decrease in the rate of browning. The mussel extract was employed in a similar manner and inhibition was calculated to be 93 percent with a 14 fold decrease in the rate of browning. […]

[1] = 90 ppm of hypotaurine, catechol substrate, FIG. 1

Average % Inhibition of apple PPO (67.5 μM) [%]	Average % Inhibition of apple PPO (250 μM) [%]	Average % Inhibition of apple PPO (500 μM) [%]	Average % Inhibition of apple PPO (500 μM, listed as methane sulfinic acid) [%]	apple PPO activity (67.5 μM)	apple PPO activity (250 μM)	apple PPO activity (500 μM)	inhibition of apple PPO (in words) (67.5 to 500 μM)	SMILES	Average % Inhibition of apple PPO (500 μM, listed as hypotaurine) [%]	fold decrease in the rate of browning [1] [fold]	inhibition of polyphenol oxidase [1] [%]
20.9 ± 16.15	98.5 ± 1.28	100						O=S(O)c1ccccc1 [Benzene Sulfinic Acid, benzene sulfinic acid]			
33.7 ± 0.69	96.8 ± 0.69	99.8 ± 0.11	100					CS(=O)O [Methane Sulfinic Acid, methane sulfinic acid]			
				0.23±0.04 ΔA420 nm/min	0.25±0.01 ΔA420 nm/min	0.23±0.01 ΔA420 nm/min	did not inhibit	NCCS(=O)(=O)O [Taurine, reference compound]			

SMILES	Average % Inhibition of apple PPO (67.5 μM) [%]	Average % Inhibition of apple PPO (250 μM) [%]	Average % Inhibition of apple PPO (500 μM) [%]	Average % Inhibition of apple PPO (500 μM, listed as methane sulfinic acid) [%]	apple PPO activity (67.5 μM)	apple PPO activity (250 μM)	apple PPO activity (500 μM)	inhibition of apple PPO (in words) (67.5 to 500 μM)	Average % Inhibition of apple PPO (500 μM, listed as hypotaurine) [%]	fold decrease in the rate of browning [1] [fold]	inhibition of polyphenol oxidase [1] [%]
NCCS(=O)O [Hypotaurine, 2-aminoethane sulfinic acid]	39.1 ± 4.48	80.0 ± 14.90	89.8 ± 7.65						89	30	97
